Literature values in patent US7053240B2, “Process for synthesizing disulfides” (BioNumerik Pharmaceuticals, Inc., priority 2003, dated 2006).

What was measured:
mice = conditions: intravenously, doses higher than 3750 mg/kg
dogs = conditions: intravenously, doses higher than 3750 mg/kg
[1] = accepted value

Row | Structure (SMILES) | adverse effects (mice) | adverse effects (dogs) | oral LD50 [1]
1 | O=S(=O)(O)CCSSCCS(=O)(=O)O [Dimesna, disodium 2,2′-dithiobis ethane sulfonate] | no adverse effects | no adverse effects | 
2 | [Cl-].[Na+] [common table salt] |  |  | 3750 mg/kg
